# Laboratory results as given in PubChem BioAssay AID488890 (Southern Research Specialized Biocontainment Screening …, 2010).
# Results filed as inconclusive are left out. Calls of active or inactive are those of the source. No rule for the calls is given here.
# Tested on: Mycobacterium tuberculosis non-replicating, growth inhibition
# Assay: growth inhibition of non-replicating M. tuberculosis (AID 488890)
row,Compound,IC50
1,CCSc1ncc(/C=N/Nc2ccc(Cl)cc2)n1C,6.58 µM
2,COc1ccc(NC(=O)c2cc([N+](=O)[O-])ccc2O)cc1,7.71 µM
3,O=C(COc1ccc(Cl)cc1)Nc1ccc(Cl)cn1,6.56 µM
4,CCOc1ccc(CC(=O)N2N=C(C)CC2(O)C(F)(F)F)cc1 (configuration not stated),13.3 µM (inactive)
5,CCOC(=O)COc1ccc(C(=O)NC2CCCCC2)cc1,4.04 µM
6,CCOC(=O)c1nn(-c2ccccc2)c2nc(Nc3ccccc3)cc(=O)n12,4.74 µM
7,Cc1ccccc1Cn1cc(NC(=O)c2noc(C(C)C)c2[N+](=O)[O-])cn1,7.58 µM
8,CCCCNC(=O)COC(=O)c1cc(Br)ccc1Cl,3.86 µM
9,Cc1ccc(NCCC(=O)c2cccs2)cc1,2.33 µM
10,O=S1(=O)C=C(Sc2nc3cc(Cl)ccc3o2)c2ccccc21,0.3 µM
11,CC(C)c1ccc2[nH]c3c(c2c1)CCC/C3=N\NC(=O)c1ccncc1,8.7 µM
12,COc1cccc(-c2nnc(NC(=O)c3ccc4ncsc4c3)o2)c1,9.06 µM
13,C/C(=N\NC(=O)CCc1ccccc1)C1C(=O)c2ccccc2C1=O,0.25 µM
14,COc1ccc(/C=C/c2cc(-c3ccc(C)cc3)o[n+]2C)cc1,4.7 µM
15,Cc1ccc(-c2nnc(NC3CCCC3)s2)cc1,23.8 µM (inactive)
16,Cc1ccc(S(=O)(=O)NCC(=O)OCCOc2cccc(Cl)c2)cc1,27.7 µM (inactive)
17,COc1ccc2c(c1)sc(=N)n2C,19.3 µM (inactive)
18,c1ccc(-c2nc3ccccn3c2NC2CCCC2)nc1,24.9 µM (inactive)
19,Cc1cccc(NC(=O)COc2ccc(Br)cc2)n1,7.08 µM
20,O=C(OCn1nnc2ccccc2c1=O)c1ccc(Br)o1,11.6 µM (inactive)
21,Cc1ccc(-n2cc(CNCCc3cscn3)c(-c3ccc(F)cc3)n2)cc1,10.9 µM (inactive)
22,Cc1ccc(C(=O)Nc2nnc(C3=COCCO3)o2)cc1C,9.19 µM
23,COc1cc(/C=N/NC(=O)c2ccccn2)ccc1OC(=O)c1cccs1,2.85 µM
24,O=[N+]([O-])c1ccc(N2CCN(Cc3ccc([N+](=O)[O-])o3)CC2)cc1,< 0.1 µM

row,Compound,IC50
1,COc1cc(N=c2ssnc2Cl)cc(OC)c1OC,17.9 µM (inactive)
2,CCCCN(C)C(=O)c1cc2cc3ccc(OC)cc3nc2s1,6.04 µM
3,O=C(N/N=C/c1ccc(Br)s1)c1ccncc1,0.47 µM
4,O=C(NNc1ccc([N+](=O)[O-])cc1)c1ccccc1Cl,9.32 µM
5,CC(NC(=O)c1cc2ccccc2oc1=O)c1ccccc1 (configuration not stated),0.86 µM
6,Cc1ccc(OC(=O)c2ccc(Br)o2)cc1,13.6 µM (inactive)
7,Cc1c([N+](=O)[O-])cnc(Sc2ccccc2)c1[N+](=O)[O-],6.43 µM
8,CN1CC(=O)NC1=NC(=O)C12CC3CC(CC(C3)C1)C2,4.08 µM
9,CC(/C=C/c1ccco1)=N\NC(=O)c1cccc(Cl)c1,4.86 µM
10,N=C1/C(=C/c2ccc(OC(=O)c3ccco3)cc2)C(=O)N=C2SC=CN12,5.02 µM
11,CCC1CCCCN1S(=O)(=O)c1ccc(C(=O)Nc2nnc(-c3cccs3)o2)cc1 (configuration not stated),11 µM (inactive)
12,O=C(Nc1cccnc1)c1ccc(-c2ccc(Cl)cc2)o1,5.13 µM
13,O=C1CC(=O)CC(c2ccccc2)C1,29.8 µM (inactive)
14,Cc1ccnc(-n2sc3ccccc3c2=O)n1,25.6 µM (inactive)
15,O=C1/C(=C\c2ccco2)SC(=S)N1c1ccc(O)cc1,33.3 µM (inactive)
16,Cc1cccc(-c2nnc3sc(-c4ccccc4C)nn23)c1,22.4 µM (inactive)
17,CCNc1nc(NC(C)(C)C)nc(N2CCCCC2)n1,9.76 µM
18,COCCCNC(=O)COC(=O)c1ccc(-c2nc3ccccc3s2)s1,5.37 µM
19,O=C(N/N=C/c1ccc[nH]1)c1ccncc1,2.22 µM
20,Cn1cnc([N+](=O)[O-])c1Sc1ccc(Br)cc1,23.6 µM (inactive)
21,CC1N(C)c2cccc3cccc(c23)N1C,36.8 µM (inactive)
22,CC1Cc2ccccc2N1C(=O)COC(=O)c1ccc(Cl)nc1 (configuration not stated),18.5 µM (inactive)
23,CCCC(=O)Nc1cccc(-c2nc3ccccc3c(=O)o2)c1,0.97 µM
24,O=C1/C(=C/c2ccccn2)COc2ccccc21,15.8 µM (inactive)

row,Compound,IC50
1,CN1C(=O)N(C)c2ccc(C=O)c3cccc1c23,3.65 µM
2,COc1ccc2c([N+](=O)[O-])c(N3CCCC3)[nH]c2c1,36 µM (inactive)
3,CCCCN1C(=O)C2(NNc3ccccc3O2)c2ccccc21 (configuration not stated),4.67 µM
4,O=C(COC(=O)CCC(=O)c1ccc(F)cc1)Nc1ccc(F)cc1F,24.6 µM (inactive)
5,Cc1cc(C)n2[nH]c(=O)c(N=Nc3cccc(C(F)(F)F)c3)c2n1,4.14 µM
6,CC1COC(=O)C(NNc2ccc(Cl)c(Cl)c2)=N1 (configuration not stated),8.67 µM
7,CCCCCn1c(=O)c(C(=O)Nc2nc(CC(=O)OCC)cs2)c(O)c2ccccc21,2.39 µM
8,O=C1CC(N2CCC(C(=O)N3CCCCC3)CC2)C(=O)N1 (configuration not stated),12.3 µM (inactive)
9,CC(C)(C)C(=O)/C=C/Nc1ccccc1O,4.66 µM
10,CC(=O)Oc1c(-c2ccc(Br)o2)oc2ccccc2c1=O,2.86 µM
11,CCC(C)n1nnc2c(=O)oc3ccccc3c21 (configuration not stated),5.63 µM
12,CCCn1c(=O)c(C(=O)N/N=C/c2ccccc2F)c(O)c2ccccc21,13.3 µM (inactive)
13,COc1ccc(N2C(=O)NC(=O)/C(=C/c3ccc([N+](=O)[O-])s3)C2=O)cc1,16.1 µM (inactive)
14,O=C(c1ccc([N+](=O)[O-])cc1[N+](=O)[O-])N1CCc2ccccc21,3.34 µM
15,CCc1ccc(OCCNc2cc(N3CCNC(C)C3)ccc2[N+](=O)[O-])cc1 (configuration not stated),2.89 µM
16,COc1ccc(C2=NC(=O)/C(=C\c3cc(OC)c(OC)c(OC)c3)O2)cc1,3.37 µM
17,Cc1cc(C)c(OCC(=O)Nc2nnc(-c3ccco3)o2)c(C)c1,45.3 µM (inactive)
18,O=C(c1ccc([N+](=O)[O-])o1)N1CCN(c2nc3ccc(F)cc3s2)CC1,< 0.1 µM
19,CC1=NN(C(=O)c2csc(C)c2C)C(O)(C(F)(F)F)C1 (configuration not stated),0.4 µM
20,CCOC(=O)C1(CCc2ccccc2)CCN(Cc2ccccn2)CC1,13.6 µM (inactive)
21,CCOC(=O)c1c(C)nc2cc(C)ccn12,5.9 µM
22,CC(=O)Nc1nc2ccccc2n1Cc1ccc(C)cc1,3.21 µM
23,CC(C)(C)OC(=O)NCCc1nnc(S(=O)(=O)Cc2ccc(Cl)cc2Cl)o1,4.85 µM
24,Cn1c(O)c(C(=Nc2ccccc2)SCc2ccccc2Cl)c(=O)n(C)c1=O,8.25 µM

row,Compound,IC50
1,CCOc1ccc(NCC(=O)c2ccc(C)cc2)cc1,4.95 µM
2,COc1ccc(C(=O)OCn2nnc3ccccc3c2=O)cc1,28.6 µM (inactive)
3,COc1ccc2[nH]c3c(C)c4ccncc4c(C)c3c2c1,0.59 µM
4,COc1ccc2c3c(cccc13)OCC2=O,25.9 µM (inactive)
5,O=c1c2c(nc3c(-c4ccc(Cl)cc4)c[nH]n13)CCC2,4.22 µM
6,O=[N+]([O-])c1ccc(CN2CCN(c3ccc(Cl)cc3)CC2)o1,< 0.1 µM
7,O=C(N/N=C/C=C/c1ccccc1)c1cccs1,45.2 µM (inactive)
8,COC(=O)c1ccc(Cn2cc(C(F)(F)F)cc([N+](=O)[O-])c2=O)cc1,1.7 µM
9,CCOc1ccc(NC(=O)Cn2sc3nc(C)cc(C)c3c2=O)cc1,5.5 µM
10,CCOC(=O)C(C)Oc1ccc(OCc2ccccc2)cc1 (configuration not stated),2.24 µM
11,Cc1ccc(S(=O)(=O)CCC(=O)Nc2nc(-c3ccncc3)cs2)cc1,14.6 µM (inactive)
12,O=C1c2cccc3c([N+](=O)[O-])ccc(c23)C(=O)N1c1ccc(Cl)cn1,0.69 µM
13,COC(=O)COc1ccc(-c2nn(C)c(=O)c3ccccc23)cc1,4.25 µM
14,Cn1cnc([N+](=O)[O-])c1Sc1ccc([N+](=O)[O-])cc1,19.7 µM (inactive)
15,Cc1cc(NC(=O)c2cc([N+](=O)[O-])cc([N+](=O)[O-])c2)no1,17.3 µM (inactive)
16,O=C(NC(=S)Nc1ccc(F)cc1)C1CCCCC1,0.71 µM
17,CN(C)C=C1C(=O)N(C2CCCCC2)C(=O)N(C2CCCCC2)C1=O,1.57 µM
18,Cc1ccc(NC(=O)C(=O)NNC(=O)c2ccccc2C)cc1Cl,2.67 µM
19,C=C1CCC[C@]2(C)C[C@H]3OC(=O)C(CNC(C)CCCC(C)C)[C@H]3CC12 (some centres not stated),15.3 µM (inactive)
20,COc1cccc(NC(=O)c2cc3ccccc3oc2=O)c1,15.2 µM (inactive)
21,Cc1ccc(S(=O)(=O)/N=C(\CCl)N2CCOCC2)cc1,11.9 µM (inactive)
22,CC(=O)c1ccc(C(=O)Nc2nnc(-c3ccc(Cl)cc3)o2)cc1,4.03 µM
23,O=C(OCC(=O)N1CCCc2ccccc21)c1ccc(S(=O)(=O)C(F)F)cc1,20.5 µM (inactive)
24,C/C(CC(=O)Nc1ccc(N(C)C)cc1)=N\NC(=O)c1ccncc1,0.3 µM

row,Compound,IC50
1,COc1ccc(NC(=O)COc2ccc3c(c2)CCC3)cc1,4.54 µM
2,Cc1[nH]n(S(=O)(=O)Cc2ccccc2)c(=O)c1N=Nc1ccccc1Cl,4.72 µM
3,CCOC(=O)Cc1csc(NC(=O)COc2ccc3c(c2)CCC3)n1,13.5 µM (inactive)
4,O=C(OCn1ncc(Br)c(Br)c1=O)c1ccccc1Cl,6.27 µM
5,O=C(COc1ccccc1)NNc1nc2ccccc2s1,34.2 µM (inactive)
6,Cc1ccsc1C(=O)OCC(=O)Nc1nnc(-c2ccccc2)o1,18.2 µM (inactive)
7,O=C(COC(=O)c1ccccc1Br)Nc1ccccc1F,14.7 µM (inactive)
8,Cc1cc(C)n(-c2ccc3cccc(NS(C)(=O)=O)c3n2)n1,4.85 µM
9,O=C(NCc1ccc(F)cc1)c1cnccn1,3.86 µM
10,O=[N+]([O-])c1ccc(Nc2ccccc2O)c2nonc12,5.94 µM
11,O=C(Nc1ccc(Cc2ccncc2)cc1)c1ccc([N+](=O)[O-])o1,1.74 µM
12,CCOC(=O)Cn1c2ccc(F)cc2c2nc(C)sc21,13.8 µM (inactive)
13,O=C(NCCC1=CCCCC1)c1ccc(Br)o1,2.31 µM
14,COc1cccc(OCc2nnc(-c3cccs3)o2)c1,1.57 µM
15,CC(NCc1ccc(OCc2ccc(Cl)cc2)cc1)C(O)c1ccccc1 (configuration not stated),6.84 µM
16,Cc1cc(C)cc(OCC(=O)N/N=C/c2ccc([N+](=O)[O-])o2)c1,1.36 µM
17,O=C(CNC1CCCC1)Nc1ccc(N2CCCCCC2)cc1,10.7 µM (inactive)
18,O=C(N/N=C/c1cccc([N+](=O)[O-])c1O)c1cccs1,2.34 µM
19,O=C(Nc1nccs1)c1sc2ccccc2c1Cl,14.3 µM (inactive)
20,O=C(Nc1ccc([N+](=O)[O-])cc1)C1COc2ccccc2O1 (configuration not stated),10.2 µM (inactive)
21,CCOc1ccc(N2CC(=O)Nc3ccccc3NCC2=O)cc1,3.98 µM
